Test results reported in US20050164370A1 (priority 2003, published 2005).

What was measured:
Type in all cases: cell-based, yeast
[1] = system: transformed cells TM182-CRE1-CYC1IPT4; assay: Liquid culture of transformed cell TM182-CRE1-CYC1IPT4 with examinee substance, absorbance; settings: Table 3, TM182-CRE1-CYC1-IPT4, 1 μL of 200 ppm DMSO solution per 100 μL, DOHLU+Glu, 30° C. for 24 hours
Description: (§1) The thus obtained culture solutions were diluted with DOHLU+Glu culture medium so that OD600 became 0.200, and then the diluted ones were further diluted with DOHLU+Glu culture medium at a dilution rate of 1/200 to obtain diluted pre-cultured solutions.
(§2) A 96-well assay plate was prepared by filling each well with 1 μL of a DMSO solution of an examinee substance (Abscisic acid or 6-Benzyl aminopurine). In this regard, it is to be noted that the DMSO solution of a examinee substance was prepared so that the concentration thereof became 200 ppm. Simultaneously, an assay plate was prepared by filling each well with 1 μL of DMSO as a blank section.
(§3) Each of the diluted pre-cultured solutions was added in a volume of 100 μL per each well of both of the assay plates, and was cultured at 30° C. for 24 hours. After incubation, the turbidity of each well was measured using a plate reader. The absorbance (OD600) of each of the culture solutions of the transformed cells containing the examinee substance was shown in Table 3. […] Further, the growth speeds of the transformed cells TM182-CRE1-CYC1IPT4 and TM182-CRE1-ADHIPT5 in the culture medium to which 6-Benzyl aminopurine was added were faster than those in the culture medium to which only DMSO was added.

[2] = system: transformed cells TM182-AHK2-CYC1IPT5; assay: Liquid culture of transformed cell TM182-AHK2-CYC1IPT5 with examinee substance, absorbance; settings: Table 4, TM182-AHK2-CYC1-IPT5, 1 μL of 200 ppm DMSO solution per 100 μL, DOHLU+Glu, 30° C. for 24 hours
Description: as §1, §2
as §3, with “4.” for “3.”, “TM182-CRE1-ADHIPT4, TM182-AHK2-CYC1IPT4, TM182-AHK2-CYC1IPT5” for “TM182-CRE1-CYC1IPT4”, “TM182-AHK2-ADHIPT5” for “TM182-CRE1-ADHIPT5”

[3] = target: T1, cytokinin receptor AHK2Δ (Arabidopsis thaliana, UniProt Q9C5U2); set-up: added initiator methionine (ATG added at the 5' end) (N); expressed in transfected cells; host or cells: yeast strain TM182 carrying plasmid p415CYC-AHK2Δ (pHM-1 backbone, CYC1 promoter); settings: TM182-AHK2Δ, examinee substance 100 μM, DOLU+Glu, 30° C. for 24 hours
T1 sequence (Q9C5U2 196-1176): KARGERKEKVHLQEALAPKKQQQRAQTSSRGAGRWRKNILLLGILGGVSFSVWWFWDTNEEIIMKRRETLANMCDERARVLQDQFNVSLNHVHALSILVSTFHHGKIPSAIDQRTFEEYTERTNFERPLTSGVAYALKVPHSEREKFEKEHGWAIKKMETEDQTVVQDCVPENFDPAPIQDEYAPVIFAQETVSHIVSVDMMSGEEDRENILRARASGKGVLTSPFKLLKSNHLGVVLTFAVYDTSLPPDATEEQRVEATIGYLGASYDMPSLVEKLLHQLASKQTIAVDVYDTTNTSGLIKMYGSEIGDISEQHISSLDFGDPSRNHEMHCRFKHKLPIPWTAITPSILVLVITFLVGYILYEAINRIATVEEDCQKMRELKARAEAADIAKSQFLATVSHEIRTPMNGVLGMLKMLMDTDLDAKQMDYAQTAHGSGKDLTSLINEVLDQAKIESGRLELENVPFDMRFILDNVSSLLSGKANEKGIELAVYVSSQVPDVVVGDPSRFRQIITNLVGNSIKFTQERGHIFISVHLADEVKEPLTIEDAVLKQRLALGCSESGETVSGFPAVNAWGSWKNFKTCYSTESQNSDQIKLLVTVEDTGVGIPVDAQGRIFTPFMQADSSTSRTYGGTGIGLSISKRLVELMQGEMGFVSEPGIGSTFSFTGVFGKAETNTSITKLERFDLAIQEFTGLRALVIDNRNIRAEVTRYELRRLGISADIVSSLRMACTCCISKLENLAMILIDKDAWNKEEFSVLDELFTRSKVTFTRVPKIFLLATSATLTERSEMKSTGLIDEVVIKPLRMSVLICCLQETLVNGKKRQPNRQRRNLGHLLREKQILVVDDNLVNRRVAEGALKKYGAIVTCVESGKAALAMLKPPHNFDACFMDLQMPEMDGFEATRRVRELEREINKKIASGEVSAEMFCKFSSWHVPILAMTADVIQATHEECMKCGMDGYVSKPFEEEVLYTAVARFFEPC
Description: The transformed cells TM182-AHK2, TM182-AHK2Δ and TM182-AHK3 produced in the reference example 1 were inoculated in 200 ml of DOLU+Gal culture media and pre-cultured at 30° C. for 36 hours. The pre-cultured solutions were diluted with DOLU+Glu media as to become 0.100 as the optical density (OD600) and further the resultants were diluted with DOLU+Glu media at a dilution rate of 1/200 to obtain diluted pre-cultured solutions.
An assay plate was prepared by filling respective wells of a 96-well plate with 20 μl of solutions which were prepared by diluting DMSO solution (10 mM) of each examinee substance with DOLU+Glu medium at a dilution rate of 1/100, said solutions containing each examinee substance to be […]. […]
The diluted pre-cultured solutions were added in 200 μl each into the respective wells of both assay plates and cultured at 30° C. for 24 hours and then the optical density (OD620) of each well was measured by a plate reader. The agonist-activity of the examinee substances to the cytokinin receptor was detected by comparing the optical density measured in the testing sections to which the examinee substances were added with the optical density measured in the blank sections.

[4] = system: transformed cells TM182-AHK2-ADHIPT5; assay: Liquid culture of transformed cell TM182-AHK2-ADHIPT5 with examinee substance, absorbance; settings: Table 4, TM182-AHK2-ADH-IPT5, 1 μL of 200 ppm DMSO solution per 100 μL, DOHLU+Glu, 30° C. for 24 hours
Description: as §1, §2
as §3, with “4.” for “3.”, “TM182-CRE1-ADHIPT4, TM182-AHK2-CYC1IPT4, TM182-AHK2-CYC1IPT5” for “TM182-CRE1-CYC1IPT4”, “TM182-AHK2-ADHIPT5” for “TM182-CRE1-ADHIPT5”

| Structure (SMILES) | absorbance (OD600) of the culture solution [1] | absorbance (OD600) of the culture solution [2] | optical density (OD620) of the culture solution [3] | absorbance (OD600) of the culture solution [4] |
| --- | --- | --- | --- | --- |
| CC1=CC(=O)CC(C)(C)[C@@]1(O)/C=C/C(C)=C\C(=O)O [Compound A, Abscisic acid] | 0.102 | 0.069 | 0 | 0.297 |
| c1ccc(CNc2ncnc3nc[nH]c23)cc1 [Compound B, 6-Benzyl aminopurine] | 0.260 | 0.430 | 0.89 | 0.427 |
